# PMC7253723, “Chain-End Modifications and Sequence Arrangements of Antimicrobial Peptoids for Mediating Activity and Nano-Assembly” (Frontiers in Chemistry, 2020)
# Read-outs that look alike come from different tables or passages of the source. Square brackets hold non-standard residues; d marks the D form. Peptide text beside a SMILES is read from it. * marks the point of attachment. N(1-naphthylmethyl)Gly = O=C(O)CNCc1cccc2ccccc12; N(4-MeBn)Gly = Cc1ccc(CNCC(=O)O)cc1; Palmitoyl = CCCCCCCCCCCCCCCC(=O)*; Nspe = C[C@H](NCC(=O)O)c1ccccc1; Nonanoyl = CCCCCCCCC(=O)*; AEEA = NCCOCCOCC(=O)O; NBuGly = CCCCNCC(=O)O; Nlys = NCCCCNCC(=O)O
# Legend:
# [1] = system: Escherichia coli (ATCC 25922); format: cell-based
# Experimental: (§1) Technical triplicates (n = 3) or more of samples at each concentration were analyzed.
# [2] = system: Staphylococcus aureus (NCTC 4135); format: cell-based
# Experimental: as §1
# [3] = system: Pseudomonas aeruginosa (PA01); format: cell-based
# Experimental: as §1
# [4] = Critical aggregation concentration (CAC) Nile red fluorescence assay; format: physicochemical; conditions: Nile red fluorescence (~10 nM NR in water), lipopeptoids 2.5 × 10^-2 to 1 wt.%, excitation 552 nm, peak around 610 nm, room temperature; inflection in emission intensity
# Experimental: Nile red (NR) fluorescence was used to measure critical aggregation concentration (CAC) for the synthesized lipopeptoids. Lipopeptoids were dissolved at 2.5 × 10^−2 to 1 wt.% in a dilute solution of Nile red (0.25 μg/100 mL, i.e. ~10 nM concentration) prepared in water. NR was excited at 552 nm and emission was recorded at room temperature in the range 550–750 nm using a 10.0 × 5.0 mm^2 quartz cell (Jasco spectrofluorimeter FP-6500). The intensity of the peak centered around 610 nm is shown in the data presented in Section results and discussion.
# We first examined with a CAC assay whether coupling a hydrophobic tail to AMPMs and inserting the kk and EG2 components is a viable design for generating self-assembling lipopeptoids. The CAC measures the concentration above which hydrophobic pockets (e.g., lipophilic cores of micelles) are formed, and lower CACs indicate higher propensities of self-assembly. In our experiments, the CAC is indicated by an inflection in the increase in emission intensity of a lipophilic fluorophore tracer (Nile Red) that emits more strongly when partitioned into hydrophobic lower dielectric environments (see Figure S6 for an example analysis).
# [5] = MH broth microdilution (CLSI M07-A10), ~5 × 10^5 CFU/mL, overnight 37°C, OD 600 nm, MIC = concentration with OD halfway between minimum and maximum, sigmoidal fit ± SD, n = 3 or more, maximum tested 100 μM
# [6] = PA01, MH broth microdilution (CLSI M07-A10), ~5 × 10^5 CFU/mL, overnight 37°C, OD 600 nm, MIC = concentration with OD halfway between minimum and maximum, sigmoidal fit ± SD, n = 3 or more, maximum tested 100 μM
SMILES,Antimicrobial activity (MIC) E. coli [1] [µM],Antimicrobial activity (MIC) S. aureus [2] [µM],Antimicrobial activity (MIC) P. aeruginosa [3] [µM],"Antimicrobial activity (MIC) E. coli [1, 5] [µM]","Antimicrobial activity (MIC) S. aureus [2, 5] [µM]","Antimicrobial activity (MIC) P. aeruginosa [3, 6] [µM]",CAC [4] [µM]
"CCCCN(CC(=O)N(CCCCN)CC(=O)N(CCCCN)CC(=O)N(CCCCN)CC(=O)N(CCCCN)CC(N)=O)C(=O)CN(Cc1cccc2ccccc12)C(=O)CN(Cc1ccc(C)cc1)C(=O)CNCc1cccc2ccccc12 [4k, reference compound] (H-[N(1-naphthylmethyl)Gly][N(4-MeBn)Gly][N(1-naphthylmethyl)Gly][NBuGly][Nlys][Nlys][Nlys][Nlys]-NH2)",7 ± 0.3,7 ± 0.1,19 ± 0.4,,,,
"C[C@@H](c1ccccc1)N(CC(N)=O)C(=O)CN(C(=O)CN(CCCCN)C(=O)CN(C(=O)CN(C(=O)CNCCCCN)[C@@H](C)c1ccccc1)[C@@H](C)c1ccccc1)[C@@H](C)c1ccccc1 [(kss)2, reference compound] (H-[Nlys][Nspe][Nspe][Nlys][Nspe][Nspe]-NH2)",,,,>100,41 ± 2,44 ± 2,
"C[C@@H](c1ccccc1)N(CC(N)=O)C(=O)CN(C(=O)CN(CCCCN)C(=O)CN(C(=O)CN(C(=O)CN(CCCCN)C(=O)CN(C(=O)CN(C(=O)CNCCCCN)[C@@H](C)c1ccccc1)[C@@H](C)c1ccccc1)[C@@H](C)c1ccccc1)[C@@H](C)c1ccccc1)[C@@H](C)c1ccccc1 [(kss)3, reference compound] (H-[Nlys][Nspe][Nspe][Nlys][Nspe][Nspe][Nlys][Nspe][Nspe]-NH2)",4 ± 0.2,2 ± 0.2,15 ± 1,,,,
"C[C@@H](c1ccccc1)N(CC(N)=O)C(=O)CN(C(=O)CN(CCCCN)C(=O)CN(C(=O)CN(C(=O)CN(CCCCN)C(=O)CN(C(=O)CN(C(=O)CN(CCCCN)C(=O)CN(C(=O)CN(C(=O)CNCCCCN)[C@@H](C)c1ccccc1)[C@@H](C)c1ccccc1)[C@@H](C)c1ccccc1)[C@@H](C)c1ccccc1)[C@@H](C)c1ccccc1)[C@@H](C)c1ccccc1)[C@@H](C)c1ccccc1 [(kss)4, reference compound] (H-[Nlys][Nspe][Nspe][Nlys][Nspe][Nspe][Nlys][Nspe][Nspe][Nlys][Nspe][Nspe]-NH2)",,,,6 ± 0.4,4 ± 0.3,16 ± 0.3,
CCCCCCCCC(=O)NCCOCCOCC(=O)N(CC(=O)N(CC(=O)N(CC(=O)N(CCCC)CC(=O)N(CCCCN)CC(=O)N(CCCCN)CC(=O)N(CCCCN)CC(=O)N(CCCCN)CC(N)=O)Cc1cccc2ccccc12)Cc1ccc(C)cc1)Cc1cccc2ccccc12 [C8-EG2-4k] ({Nonanoyl-AEEA}-[N(1-naphthylmethyl)Gly][N(4-MeBn)Gly][N(1-naphthylmethyl)Gly][NBuGly][Nlys][Nlys][Nlys][Nlys]-NH2),,,,17 ± 1,18 ± 3,16 ± 2,2500 ± 350
CCCCCCCCC(=O)NCCOCCOCC(=O)N(CC(=O)N(CC(=O)N(CC(=O)N(CCCC)CC(=O)N(CCCCN)CC(=O)N(CCCCN)CC(=O)N(CCCCN)CC(=O)N(CCCCN)CC(=O)N(CCCCN)CC(N)=O)Cc1cccc2ccccc12)Cc1ccc(C)cc1)Cc1cccc2ccccc12 [C8-EG2-5k] ({Nonanoyl-AEEA}-[N(1-naphthylmethyl)Gly][N(4-MeBn)Gly][N(1-naphthylmethyl)Gly][NBuGly][Nlys][Nlys][Nlys][Nlys][Nlys]-NH2),74 ± 4,8 ± 0.3,41 ± 2,,,,1600 ± 390
CCCCCCCCC(=O)NCCOCCOCC(=O)N(CCCCN)CC(=O)N(CC(=O)N(CC(=O)N(CCCCN)CC(=O)N(CC(=O)N(CC(=O)N(CCCCN)CC(=O)N(CCCCN)CC(N)=O)[C@@H](C)c1ccccc1)[C@@H](C)c1ccccc1)[C@@H](C)c1ccccc1)[C@@H](C)c1ccccc1 [C8-EG2-(kss)2-kk] ({Nonanoyl-AEEA}-[Nlys][Nspe][Nspe][Nlys][Nspe][Nspe][Nlys][Nlys]-NH2),,,,18 ± 3,9 ± 1,13 ± 3,200 ± 37
CCCCCCCCC(=O)NCCOCCOCC(=O)N(CCCCN)CC(=O)N(CC(=O)N(CC(=O)N(CCCCN)CC(=O)N(CC(=O)N(CC(=O)N(CCCCN)CC(=O)N(CC(=O)N(CC(=O)N(CCCCN)CC(=O)N(CCCCN)CC(N)=O)[C@@H](C)c1ccccc1)[C@@H](C)c1ccccc1)[C@@H](C)c1ccccc1)[C@@H](C)c1ccccc1)[C@@H](C)c1ccccc1)[C@@H](C)c1ccccc1 [C8-EG2-(kss)3-kk] ({Nonanoyl-AEEA}-[Nlys][Nspe][Nspe][Nlys][Nspe][Nspe][Nlys][Nspe][Nspe][Nlys][Nlys]-NH2),,,,2 ± 0.3,3 ± 1,6 ± 2,270 ± 30
CCCCCCCCC(=O)NCCOCCOCC(=O)N(CC(=O)N(CCCCN)CC(=O)N(CC(=O)N(CCCCN)CC(=O)N(CC(=O)N(CCCCN)CC(=O)N(CCCC)CC(=O)N(CCCCN)CC(N)=O)Cc1cccc2ccccc12)Cc1ccc(C)cc1)Cc1cccc2ccccc12 [C8-EG2-kykbk] ({Nonanoyl-AEEA}-[N(1-naphthylmethyl)Gly][Nlys][N(4-MeBn)Gly][Nlys][N(1-naphthylmethyl)Gly][Nlys][NBuGly][Nlys]-NH2),,,,11 ± 4,2 ± 0.2,15 ± 3,1900 ± 200
CCCCCCCCCCCCCCCC(=O)NCCOCCOCC(=O)N(CC(=O)N(CC(=O)N(CC(=O)N(CCCC)CC(=O)N(CCCCN)CC(=O)N(CCCCN)CC(=O)N(CCCCN)CC(=O)N(CCCCN)CC(N)=O)Cc1cccc2ccccc12)Cc1ccc(C)cc1)Cc1cccc2ccccc12 [C15-EG2-4k] ({Palmitoyl-AEEA}-[N(1-naphthylmethyl)Gly][N(4-MeBn)Gly][N(1-naphthylmethyl)Gly][NBuGly][Nlys][Nlys][Nlys][Nlys]-NH2),,,,,,,320 ± 24
CCCCCCCCCCCCCCCC(=O)NCCOCCOCC(=O)N(CC(=O)N(CC(=O)N(CC(=O)N(CCCC)CC(=O)N(CCCCN)CC(=O)N(CCCCN)CC(=O)N(CCCCN)CC(=O)N(CCCCN)CC(=O)N(CCCCN)CC(N)=O)Cc1cccc2ccccc12)Cc1ccc(C)cc1)Cc1cccc2ccccc12 [C15-EG2-5k] ({Palmitoyl-AEEA}-[N(1-naphthylmethyl)Gly][N(4-MeBn)Gly][N(1-naphthylmethyl)Gly][NBuGly][Nlys][Nlys][Nlys][Nlys][Nlys]-NH2),,,,,,,360 ± 25
CCCCCCCCCCCCCCCC(=O)NCCOCCOCC(=O)N(CC(=O)N(CCCCN)CC(=O)N(CC(=O)N(CCCCN)CC(=O)N(CC(=O)N(CCCCN)CC(=O)N(CCCC)CC(=O)N(CCCCN)CC(N)=O)Cc1cccc2ccccc12)Cc1ccc(C)cc1)Cc1cccc2ccccc12 [C15-EG2-kykbk] ({Palmitoyl-AEEA}-[N(1-naphthylmethyl)Gly][Nlys][N(4-MeBn)Gly][Nlys][N(1-naphthylmethyl)Gly][Nlys][NBuGly][Nlys]-NH2),,,,,,,410 ± 32
"CCCCN(CC(=O)N(CCCCN)CC(N)=O)C(=O)CN(CCCCN)C(=O)CN(Cc1cccc2ccccc12)C(=O)CN(CCCCN)C(=O)CN(Cc1ccc(C)cc1)C(=O)CN(CCCCN)C(=O)CNCc1cccc2ccccc12 [Kykbk, reference compound] (H-[N(1-naphthylmethyl)Gly][Nlys][N(4-MeBn)Gly][Nlys][N(1-naphthylmethyl)Gly][Nlys][NBuGly][Nlys]-NH2)",15 ± 1,9 ± 0.4,20 ± 1,,,,
